Values belong to the molecule of their own block, whether it stands above or below them.
How the values were obtained:
c-Abl kinase = c-Abl kinase (Abelson murine leukemia virus, UniProt P00521); assay: Inhibition of c-Abl kinase activity (cell-free, Abl peptide substrate, 33P Flashplate); type: biochemical; conditions: IC50 for the c-Abl kinase activity
[1] = system: PDGF-BB-stimulated angiogenesis; assay: Anti-angiogenesis matrigel mouse model (MM assay) supplemented with PDGF-BB, plug hemoglobin content; type: in vivo, mice (C57BL/6J); conditions: mice
Text: Angiogenesis inhibitory activity of a compound of this invention can be measured in vivo using the matrigel mouse model (MM Assay) of angiogenesis (Passaniti et al., Laboratory Investigation, 67: 519–528, 1992). The matrigel mouse assay is a well-established method to quantify angiogenesis (see e g. Capogrossi et al., Methods in Molecular Medicine, Vascular Disease: Molecular Biology and Gene Therapy Protocols, Edited by: A. H. Baker, Humana Press Inc., Totowa, N.J., 1999). The model has been characterized extensively for its relevance as a mimic of the process of angiogenesis and has been used extensively to evaluate in vivo both potential angiogenic and anti-angiogenic activity of numerous compounds/agents. […] All procedures involving animals were conducted in an animal facility fully accredited by the American Association for Assessment and Accreditation of Laboratory Animal Care (AAALAC) and in accordance with The Guide for the Care and Use of Laboratory Animals (NIH). […]
Normal male mice (C57BL/6J) were injected subcutaneously (ventrally below rib cage at abdominal midline) with 1.0 mL of chilled matrigel supplemented with a single purified pro-angiogenic growth factor (100–500 ng/mL of either rhPDGF-BB (supra), recombinant human basic fibroblast growth factor, rhFGF-basic (R&D System Cat. No 233-FB) or recombinant human vascular endothelial growth factor, rhVEGF (PanVera Cat. No R2951) and heparin (35 U/mL). Compounds are formulated as 0.1% suspensions (1 mg/mL final concentration) in 0.5% methylcellulose. Vehicle or test compounds (8–10 mice per treatment group) were administered orally by gavage beginning two hours after matrigel injections. […] Supernatants were removed and the hemoglobin concentration in the plug extract was measured spectrophotometrically using the Drabkin's assay method (Drabkin's reagent kit 525-A; SIGMA) and read on a Beckman DU 7400 Spectrophotometer. […] Group differences were analyzed statistically using the Mann-Whitney Test, with a p-value of 0.05 or less considered statistically significant. […]

[2] = system: human chronic myelogenous leukemia (CML) K562 cell line; assay: Trypan blue exclusion cell counting assay in leukemia cells; type: cell-based
Experimental: The effect of compounds of the invention on cell proliferation in leukemia cells, in particular, the human chronic myelogenous leukemia (CML) K562 cell line, was tested using flow cytometry and trypan blue exclusion cell counting assays.
The human chronic myelogenous leukemia (CML) K562 cell line was obtained from American Type Culture Collection (ATCC) and cultured under specified conditions, as provided by ATCC. A Becton Dickinson FACSCalibur instrument was used for flow cytometry analyses. A CycleTEST PLUS DNA Reagent Kit (Cat. No. 340242, Becton Dickinson) was used in the study for cell staining. The standard operating procedure and a protocol for CycleTEST PLUS DNA Reagent Kit from Becton Dickinson have been followed to carry out the study. Briefly, flow cytometric analysis of the differentially stained CML K562 cell line was used to estimate the DNA content and cell cycle phase distribution of cells treated with various concentrations of the compound for 24 hours. […] Data analysis was carried out using the ModFit LT cell cycle data analysis program (Verity Software House, Topsham, Me. 04086, www.vsh.com). Cell viability test was performed using a Trypan Blue exclusion assay (Trypan Blue from Sigma, Cat No. T 0776) following procedures known to those skilled in the art.

H460 = assay: Flow cytometry and trypan blue exclusion cell counting, H460; type: cell-based, human
LoVo = assay: Flow cytometry and trypan blue exclusion cell counting, LoVo; type: cell-based, human

Chain of c-Abl kinase (P00521 115-385): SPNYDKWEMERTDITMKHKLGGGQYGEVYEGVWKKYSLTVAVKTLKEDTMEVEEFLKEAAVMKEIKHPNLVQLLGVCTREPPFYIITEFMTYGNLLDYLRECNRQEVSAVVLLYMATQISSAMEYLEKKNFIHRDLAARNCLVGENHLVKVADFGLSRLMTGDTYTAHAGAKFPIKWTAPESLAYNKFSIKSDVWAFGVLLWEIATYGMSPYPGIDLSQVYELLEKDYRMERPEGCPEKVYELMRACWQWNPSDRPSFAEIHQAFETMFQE

SMILES: COC(=O)c1cccc(Nc2[nH]nc3c2Cc2cc(OC)c(OC)cc2-3)c1 [Compound 11, 3-(6,7-Dimethoxy-2,4-dihydro-indeno[1,2-c]pyrazol-3-ylamino)-benzoic acid methyl ester]
IC50 (c-Abl kinase): 118 nM

SMILES: COc1cc2c(cc1OC)-c1n[nH]c(Nc3ccccc3F)c1C2 [Compound 12, (6,7-Dimethoxy-2,4-dihydro-indeno[1,2-c]pyrazol-3-yl)-(2-fluoro-phenyl)-amine]
IC50 (c-Abl kinase): 20 nM
% Inhibition @ 30 mg/kg po (angiogenesis, MM assay supplemented with PDGF-BB) [1]: 45%

IC50 ([2]; Homo sapiens, K562, 24 hours treatment, read-out: IC50 on K562 cell proliferation): ~10 nM
SMILES: COc1cc2c(cc1OC)-c1n[nH]c(Nc3cccc(F)c3)c1C2 [Compound 14, (3-Fluoro-phenyl)-(6,7-dimethoxy-2,4-dihydro-indeno[1,2-c]pyrazol-3-yl)-amine]
effect on cell proliferation in K562 cells ([2]; 24 hours treatment): concentration-dependent decrease of cell proliferation
cell cycle / growth effect in H460 cells (H460): blocked growth
cell cycle / growth effect in LoVo cells (LoVo): blocked growth
% Inhibition @ 30 mg/kg po (angiogenesis, MM assay supplemented with PDGF-BB) [1]: 40%

SMILES: Cc1ccc2c(c1)-c1n[nH]c(Nc3ccccc3)c1C2 [Compound 22, (7-Methyl-2,4-dihydro-indeno[1,2-c]pyrazol-3-yl)-phenyl-amine]
IC50 (c-Abl kinase): 19 nM

SMILES: COc1cc2c(cc1OC)-c1n[nH]c(Nc3cccnc3)c1C2 [Compound 30, (6,7-Dimethoxy-2,4-dihydro-indeno[1,2-c]pyrazol-3-yl)-pyridin-3-yl-amine]
IC50 (c-Abl kinase): 491 nM

SMILES: COc1ccc2c(c1)-c1n[nH]c(Nc3ccccc3)c1C2 [Compound 39, (7-Methoxy-2,4-dihydro-indeno[1,2-c]pyrazol-3-yl)-phenyl-amine]
IC50 (c-Abl kinase): 13 nM

SMILES: COc1cc2c(cc1OC)-c1n[nH]c(NCc3ccccc3)c1C2 [Compound 63, Benzyl-(6,7-dimethoxy-2,4-dihydro-indeno[1,2-c]pyrazol-3-yl)-amine]
IC50 (c-Abl kinase): 419 nM

SMILES: COc1cccc(Nc2[nH]nc3c2Cc2cc4c(cc2-3)OCO4)c1 [Compound 97, (2,9-Dihydro-5,7-dioxa-2,3-diaza-cyclopenta[a]-s-indacen-1-yl)-(3-methoxy-phenyl)-amine]
IC50 (c-Abl kinase): 227 nM

SMILES: CN1CCN(c2ccc3c(c2)Cc2c-3n[nH]c2Nc2cccc(Br)c2)CC1 [Compound 122, (3-Bromo-phenyl)-[6-(4-methyl-piperazin-1-yl)-2,4-dihydro-indeno[1,2-c]pyrazol-3-yl]-amine]
IC50 (c-Abl kinase): 1260 nM

SMILES: COC(=O)c1cccc(Nc2[nH]nc3c2Cc2cc(OCCCN4CCCC4)c(OC)cc2-3)c1 [Compound 157, 3-[7-Methoxy-6-(3-pyrrolidin-1-yl-propoxy)-2,4-dihydro-indeno[1,2-c]pyrazol-3-ylamino]-benzoic acid methyl ester]
IC50 (c-Abl kinase): 371 nM

SMILES: COc1cc2c(cc1OC)-c1n[nH]c(NCc3cc(Cl)ccc3Cl)c1C2 [Compound 330, (2,5-Dichloro-benzyl)-(6,7-dimethoxy-2,4-dihydro-indeno[1,2-c]pyrazol-3-yl)-amine]
IC50 (c-Abl kinase): 91 nM

SMILES: COc1cc2c(cc1OC)-c1c(c(Nc3cccc(F)c3)nn1C(=O)CO)C2 [Compound 432, 1-[3-(3-Fluoro-phenylamino)-6,7-dimethoxy-4H-indeno[1,2-c]pyrazol-1-yl]-2-hydroxy-ethanone]
IC50 (c-Abl kinase): 96 nM

Source: patent publication US7196110B2, “N-substituted tricyclic 3-aminopyrazoles as inhibitors for the treatment of cell proliferative disorders” (Janssen Phamaceutica N.V., priority 2002, dated 2007)
